Data: patent US20250304576A1 (Cancer Research Technology Limited, priority 2022, published 2025)

What follows are compounds tested against T1, IKBKB (IKKβ) (Homo sapiens, UniProt O14920) (assay: Z'-LYTE IKKβ assay (Life Technologies)). Conditions: not given.
T1 construct: purchased Life Technologies (assay performed by the vendor)
T1 sequence (O14920 1-756): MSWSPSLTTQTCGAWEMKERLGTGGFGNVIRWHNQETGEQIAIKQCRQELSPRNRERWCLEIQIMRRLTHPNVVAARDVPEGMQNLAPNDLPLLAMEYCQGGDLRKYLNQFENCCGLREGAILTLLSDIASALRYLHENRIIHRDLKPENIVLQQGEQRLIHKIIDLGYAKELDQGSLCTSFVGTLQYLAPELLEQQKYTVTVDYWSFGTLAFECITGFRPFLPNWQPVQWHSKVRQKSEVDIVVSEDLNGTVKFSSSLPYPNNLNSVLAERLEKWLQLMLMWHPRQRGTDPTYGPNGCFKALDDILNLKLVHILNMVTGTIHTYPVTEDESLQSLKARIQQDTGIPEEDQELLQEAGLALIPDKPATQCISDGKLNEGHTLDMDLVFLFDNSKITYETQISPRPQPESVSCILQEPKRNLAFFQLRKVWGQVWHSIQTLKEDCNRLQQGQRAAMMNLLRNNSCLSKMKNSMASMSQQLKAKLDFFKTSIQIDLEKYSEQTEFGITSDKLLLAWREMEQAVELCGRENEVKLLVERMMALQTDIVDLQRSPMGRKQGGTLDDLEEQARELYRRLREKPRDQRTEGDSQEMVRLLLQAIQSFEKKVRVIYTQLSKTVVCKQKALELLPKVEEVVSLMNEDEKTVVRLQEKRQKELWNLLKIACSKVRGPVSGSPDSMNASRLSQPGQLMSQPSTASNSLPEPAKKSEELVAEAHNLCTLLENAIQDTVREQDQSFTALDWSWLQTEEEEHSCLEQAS
Format: biochemical
Protocol: IKKα and IKKβ inhibitory activity was determined using three different assays: a dissociation enhanced ligand fluorescent immunoassay (DELFIA) based on the protocol of HTScan™ IKKβ Kinase Assay (Cell Signaling Technology, USA); an Adapta IKKα assay (performed by Life Technologies); a Z′-LYTE™ IKKβ assay (performed by Life Technologies).
The reaction was performed in low volume NBS, black 384-well plates (Corning model 4514).
The test compounds were screened in 1% DMSO (final) in the well. For 10 point titrations, 3-fold serial dilutions were conducted from the starting concentration of 50 mM.
The 2× IKBKB (IKKβ)/Ser/Thr 05 mixture was prepared in 50 mM HEPES pH 7.5, 0.01% BRIJ-35, 10 mM MgCl2, 1 mM EGTA. The final 10 μL Kinase Reaction consisted of 0.62-4 ng IKBKB (IKKβ) and 2 μM Ser/Thr 05 in 50 mM HEPES pH 7.5, 0.01% BRIJ-35, 10 mM MgCl2, 1 mM EGTA.
5 μL of 2× Kinase reaction was incubated with 2.5 μL of ATP solution diluted to a 4× working concentration in Kinase Buffer (50 mM HEPES pH 7.5, 0.01% BRIJ-35, 10 mM MgCl2, 1 mM EGTA) in the presence of […] of 100× test compound in 100% DMSO and 2.4 μL of Kinase buffer.
The resulting kinase reaction was allowed to incubate for 1 hour at room temperature before 5 μL of a 1:64 dilution of Development Reagent B was added and the resulting Development Reaction was incubated for another hour at room temperature. Then the plate was read on a fluorescence plate reader and the data analysed.
A ratiometric method, which calculated the Emission Ratio of donor emission (i.e. coumarin) to acceptor emission (i.e. fluorescein) after excitation of the donor fluorophore at 400 nm, was used to quantitate reaction progress, as shown in the equation below.

Q: How did the IC50 turn out when `Nc1n[nH]c2ccc(-c3ccnc4[nH]c(CCCN5CCOCC5)cc34)cc12` [Example 271, 5-(2-(3-Morpholinopropyl)-1H-pyrrolo[2,3-b]pyridin-4-yl)-1H-indazlo-3-amine] was run?
A: 111 nM

Q: Which IC50 does the source give for `Nc1n[nH]c2c(C#CC3CCCCC3)cc(-c3ccnc4[nH]ccc34)cc12` [Example 204, 7-(Cyclohexylethynyl)-5-(1H-pyrrolo[2,3-b]pyridin-4-yl)-1H-indazol-3-amine] here?
A: 13500 nM

Q: For `Nc1n[nH]c2ccc(-c3ccnc4[nH]c(C5CCCCN5)cc34)cc12` (centres unmarked) [Example 250, 5-(2-(Piperidin-2-yl)-1H-pyrrolo[2,3-b]pyridine-4-yl)-1H-indazol-3-amine], which IC50 is on record?
A: 810 nM

Q: With `Nc1n[nH]c2ccc(-c3ccnc4[nH]c(CN5CCCCCC5)cc34)cc12` [Example 265, 5-(2-(Azepan-1-ylmethyl)-1H-pyrrolo[2,3-b]pyridine-4-yl)-1H-indazol-3-amine] as the compound, how does the IC50 read?
A: 350 nM

Q: Which IC50 does the source give for `Nc1n[nH]c2ccc(-c3ccnc4[nH]c(C5CCCCO5)cc34)cc12` (centres unmarked) [Example 229, 5-(2-(Tetrahydro-2H-pyran-2-yl)-1H-pyrrolo[2,3-b]pyridin-4-yl)-1H-indazol-3-amine] here?
A: 225 nM

Q: How did the IC50 turn out when `CC(C)(O)C#Cc1cc(-c2ccnc3[nH]ccc23)cc2c(N)n[nH]c12` [Example 206, 4-(3-Amino-5-(1H-pyrrolo[2,3-b]pyridin-4-yl)-1H-indazol-7-yl)-2-methylbut-3-yn-2-ol] was run?
A: 294 nM

Q: With `Nc1n[nH]c2ccc(-c3ccnc4[nH]c(C5CC5)cc34)cc12` [Example 218, 5-(2-Cyclopropyl-1H-pyrrolo[2,3-b]pyridin-4-yl)-1H-indazol-3-amine] as the compound, how does the IC50 read?
A: 17 nM

Q: With `CN1CCN(Cc2cc3c(-c4ccc5[nH]nc(N)c5c4)ccnc3[nH]2)CC1` [Example 263, 5-(2-((4-Methylpiperazin-1-yl)methyl)-1H-pyrrolo[2,3-b]pyridine-4-yl)-1H-indazol-3-amine] as the compound, how does the IC50 read?
A: 300 nM

Q: With `CN1CCN(C(=O)c2cc3c(-c4ccc5[nH]nc(N)c5c4)ccnc3[nH]2)CC1` [Example 243, (4-(3-Amino-1H-indazol-5-yl)-1H-pyrrolo[2,3-b]pyridin-2-yl)(4-methylpiperazin-1-yl)methanone] as the compound, how does the IC50 read?
A: 630 nM

Q: Which IC50 does the source give for `Nc1n[nH]c2ccc(-c3ccnc4[nH]c(CC5CCNCC5)cc34)cc12` [Example 272, 5-(2-(Piperidin-4-ylmethyl)-1H-pyrrolo[2,3-b]pyridin-4-yl)-1H-indazol-3-amine] here?
A: 53 nM

Q: `Nc1n[nH]c2ccc(-c3ccnc4[nH]c(C5CCCCC5)cc34)cc12` [Example 219, 5-(2-Cyclohexyl-1H-pyrrolo[2,3-b]pyridin-4-yl)-1H-indazol-3-amine] was tested. Which IC50 did it give?
A: 280 nM

Q: With `CC(C)N(C)Cc1cc2c(-c3ccc4[nH]nc(N)c4c3)ccnc2[nH]1` [Example 259, 5-(2-((Isopropyl(methyl)amino)methyl)-1H-pyrrolo[2,3-b]pyridine-4-yl)-1H-indazol-3-amine] as the compound, how does the IC50 read?
A: 790 nM

Same assay, conditions: Life Technologies assay

Q: With `Nc1nccc(-c2ccc3[nH]nc(N)c3c2)c1C#CC1CCCC1` [Example 73, 5-(2-Amino-3-(cyclopentylethynyl)pyridine-4-yl)-1H-indazol-3-amine] as the compound, how does the IC50 read?
A: 206 nM

Q: `Nc1cc(-c2cc(-c3ccoc3)c3[nH]nc(N)c3c2)ccn1` [Example 129, 5-(2-Aminopyridin-4-yl)-7-(furan-3-yl)-1H-indazol-3-amine] was tested. Which IC50 did it give?
A: 135 nM

Q: `CC(C)(O)C#Cc1c(-c2ccc3[nH]nc(N)c3c2)ccnc1N` [Example 87, 4-(2-Amino-4-(3-amino-1H-indazol-5-yl)pyridine-3-yl)-2-methylbut-3-yn-2-ol] was tested. Which IC50 did it give?
A: 36 nM

Q: How did the IC50 turn out when `Nc1nccc(-c2ccc3[nH]nc(N)c3c2)c1C#CC1(O)CCCCCC1` [Example 91, 1-((2-Amino-4-(3-amino-1H-indazol-5-yl)pyridine-3-yl)ethynyl)cycloheptan-1-ol] was run?
A: 505 nM

Q: `Nc1nccc(-c2ccc3[nH]nc(N)c3c2)c1C#CCCCO` [Example 85, 5-(2-Amino-4-(3-amino-1H-indazol-5-yl)pyridine-3-yl)pent-4-yn-1-ol] was tested. Which IC50 did it give?
A: 25 nM
